Experimental data published in ChEMBL document CHEMBL1155149, “In vitro activities of 15 antimicrobial agents against 110 toxigenic clostridium difficile clinical isolates collected from 1983 to 2004” (2007).
Values after ≈ are worked out from the molar mass of the structure shown.

Tested on: Clostridioides difficile
Assay: Antimicrobial activity against Clostridium difficile clinical isolates by agar dilution method
Type: functional

SMILES	MIC50 [µg/mL]	MIC90 [µg/mL]
C[C@@H](O)[C@H]1C(=O)N2C(C(=O)O)=C(S[C@@H]3CN[C@H](CNS(N)(=O)=O)C3)[C@H](C)[C@H]12 [DORIPENEM]	1 (≈ 2.38 µM)	2 (≈ 4.76 µM)
CCc1c(Cl)c(O)c(Cl)c(O)c1C(=O)O[C@H]1[C@H](O)[C@H](OC)[C@H](OC/C2=C\C=C\C[C@H](O)/C(C)=C/[C@H](CC)[C@@H](O[C@@H]3OC(C)(C)[C@@H](OC(=O)C(C)C)[C@H](O)[C@@H]3O)/C(C)=C/C(C)=C/C[C@@H]([C@@H](C)O)OC2=O)O[C@@H]1C [FIDAXOMICIN]	0.125 (≈ 0.118 µM)	0.125 (≈ 0.118 µM)
COc1c(N2CCNC(C)C2)c(F)cc2c(=O)c(C(=O)O)cn(C3CC3)c12 (stereo unspecified) [GATIFLOXACIN]	1 (≈ 2.66 µM)	16 (≈ 42.6 µM)
C[C@H]1COc2c(N3CCN(C)CC3)c(F)cc3c(=O)c(C(=O)O)cn1c23.C[C@H]1COc2c(N3CCN(C)CC3)c(F)cc3c(=O)c(C(=O)O)cn1c23.O [LEVOFLOXACIN]	4	32
C[C@@H](O)[C@H]1C(=O)N2C(C(=O)O)=C(S[C@@H]3CN[C@H](C(=O)N(C)C)C3)[C@H](C)[C@H]12 [MEROPENEM]	2 (≈ 5.22 µM)	2 (≈ 5.22 µM)
Cc1ncc([N+](=O)[O-])n1CCO [METRONIDAZOLE]	0.125 (≈ 0.73 µM)	0.25 (≈ 1.46 µM)
CC(=O)Oc1ccccc1C(=O)Nc1ncc([N+](=O)[O-])s1 [NITAZOXANIDE]	0.06 (≈ 0.195 µM)	0.125 (≈ 0.407 µM)
CO[C@H]1/C=C/O[C@@]2(C)Oc3c(C)c(O)c4c(=O)c(c5oc6cc(N7CCN(CC(C)C)CC7)cc(O)c6nc-5c4c3C2=O)NC(=O)/C(C)=C\C=C\[C@H](C)[C@H](O)[C@@H](C)[C@@H](O)[C@@H](C)[C@H](OC(C)=O)[C@@H]1C [RIFALAZIL]	0.0075 (≈ 0.00797 µM)	0.03 (≈ 0.0319 µM)
CO[C@H]1/C=C/O[C@@]2(C)Oc3c(C)c(O)c4c(O)c(c5c(nc6cc(C)ccn65)c4c3C2=O)NC(=O)/C(C)=C\C=C\[C@H](C)[C@H](O)[C@@H](C)[C@@H](O)[C@@H](C)[C@H](OC(C)=O)[C@@H]1C [RIFAXIMIN]	0.0075 (≈ 0.00954 µM)	0.015 (≈ 0.0191 µM)
CN(C)c1cc(NC(=O)CNC(C)(C)C)c(O)c2c1C[C@H]1C[C@H]3[C@H](N(C)C)C(O)=C(C(N)=O)C(=O)[C@@]3(O)C(O)=C1C2=O [TIGECYCLINE]	0.125 (≈ 0.213 µM)	0.25 (≈ 0.427 µM)
CCS(=O)(=O)CCn1c([N+](=O)[O-])cnc1C [TINIDAZOLE]	0.125 (≈ 0.506 µM)	0.25 (≈ 1.01 µM)
O=C(Nc1ncc([N+](=O)[O-])s1)c1ccccc1O [TIZOXANIDE]	0.06 (≈ 0.226 µM)	0.125 (≈ 0.471 µM)
CN[C@H](CC(C)C)C(=O)N[C@H]1C(=O)N[C@@H](CC(N)=O)C(=O)N[C@H]2C(=O)N[C@H]3C(=O)N[C@H](C(=O)N[C@H](C(=O)O)c4cc(O)cc(O)c4-c4cc3ccc4O)[C@H](O)c3ccc(c(Cl)c3)Oc3cc2cc(c3O[C@@H]2O[C@H](CO)[C@@H](O)[C@H](O)[C@H]2O[C@H]2C[C@](C)(N)[C@H](O)[C@H](C)O2)Oc2ccc(cc2Cl)[C@H]1O [VANCOMYCIN]	1 (≈ 0.69 µM)	1 (≈ 0.69 µM)
